Earlier results as cited in patent publication US20250331550A1, “AEROSOL-GENERATING ARTICLE EMBEDDED AVERSIVE AGENT” (PHILIP MORRIS PRODUCTS S.A., priority 2022, published 2025).
Counter-ions that a name gives are not always drawn.

Tested on: test panel
Details: reciprocal of the dilution that still has a bitter taste; quinine hydrochloride set at 200,000

Row | Molecule | Bitterness value
1 | CC1=C[C@H]2[C@H]3[C@H](C(C)=C4[C@H]5OC(=O)[C@@H](C)[C@@H]5CC[C@](C)(O)[C@@H]43)[C@@]13[C@@H]2[C@@](C)(O)CC[C@H]1[C@H](C)C(=O)O[C@@H]13 [Absinthin, absinthin] | 3,000,000
2 | C[C@@]12C[C@@H](c3ccoc3)OC(=O)[C@@H]1CC[C@]1(C)[C@H]2[C@@H]2C=C[C@@]1(O)C(=O)O2 [Columbin, columbin] | 60,000,000
3 | COC1=C[C@@H](C)[C@@H]2C[C@H]3OC(=O)C[C@H]4C(C)=C(OC)C(=O)[C@H]([C@@]2(C)C1=O)[C@@]34C [Quassin, quassin] | 13,000,000
4 | C=C[C@H]1C[N@@]2CC[C@H]1C[C@H]2[C@H](O)c1ccnc2ccc(OC)cc12 [Quinine hydrochloride, quinine hydrochloride] | 200,000
5 | amarogentin | 58,000,000
